Patent US20140017223A1, “Pharmaceutical Compositions Comprising A Pancreatic Enzyme Preparation With Viral Infectivity Reduced Below A Significant Level And Methods Of Preparing And Using The Same” (Aptalis Pharma Canada Inc., priority 2010, published 2014)

Test system: Endogenous PPV
Assay: Inactivation of endogenous PPV of PEP by BPL, chloroform/PEG extraction method (Example 4)
Type: cell-based, porcine parvovirus (PPV)
Settings: for Detected PPV Titer: 0*=below detection limit of 63 FFID50/g PEP
Protocol: Pancrelipase powders from 2 different lots were each dissolved in 100 mM Tris, pH=8.3, at a concentration of 100 mg/ml. Two ml non-purified PPV viral stock (prepared using standard protocols (Arella et al., Physicichemical properties, production, and purification of parvoviruses. 1990, In Tijssen, P. (ed.), CRC handbook of parvoviruses. Boca Raton, Fla.: CRC Press, 11-30)) were added to 38 ml of the pancrelipase solution. The virus was mixed with the PEP using slow shaking at room temperature for one day. Aliquots were taken from the PPV-spiked pancrelipase stocks and each was incubated with different concentrations of BPL (available from Sigma-Aldrich, St. Louis, Mo.) (except the control) for 48 hours at room temperature (20° C.). The level of viral inactivation was measured by the titration of PPV infectivity using serial dilutions of 1,000 times or more since the titer of spiked virus was high. Determination of the FFID50 was performed using the fluorescence assay as described in the PPV FFID-infectivity assay of U.S. Patent Publication No. 2009/0226414.
The experiment described in Example 1 was repeated except no additional PPV was added. Like Example 3, the infectivity assay was performed after PEG/chloroform purification.

[1] = PEP # 1, endogenous PPV 3.20 × 10^3, 0.10% (v/v) BPL
[2] = PEP # 1, endogenous PPV 3.20 × 10^3, 0.25% (v/v) BPL
[3] = PEP # 2, endogenous PPV 0.10 × 10^3, 0.04% (v/v) BPL
[4] = PEP # 2, endogenous PPV 0.10 × 10^3, 0.10% (v/v) BPL
[5] = PEP # 2, endogenous PPV 0.10 × 10^3, 0.25% (v/v) BPL
[6] = PEP # 3, endogenous PPV 6.40 × 10^3, 0.10% (v/v) BPL
[7] = PEP # 3, endogenous PPV 6.40 × 10^3, 0.25% (v/v) BPL
[8] = PEP # 4, endogenous PPV 0.20 × 10^3, 0.04% (v/v) BPL
[9] = PEP # 4, endogenous PPV 0.20 × 10^3, 0.10% (v/v) BPL
[10] = PEP # 4, endogenous PPV 0.20 × 10^3, 0.25% (v/v) BPL

O=C1CCO1 [BPL, Beta-propiolactone]
Detected PPV Titer (PEP # 1, endogenous PPV 3.20 × 10^3, 0.04% (v/v) BPL): 0.50 × 10^2 FFID50/g
PPV Titer reduction [1]: 10^3 FFID50/g
Detected PPV Titer [1]: < 0* FFID50/g
PPV Titer reduction [2]: 10^3 FFID50/g
Detected PPV Titer [2]: < 0* FFID50/g
PPV Titer reduction [3]: 10^3 FFID50/g
Detected PPV Titer [3]: < 0* FFID50/g
PPV Titer reduction [4]: 10^3 FFID50/g
Detected PPV Titer [4]: < 0* FFID50/g
PPV Titer reduction [5]: 10^3 FFID50/g
Detected PPV Titer [5]: < 0* FFID50/g
Detected PPV Titer (PEP # 3, endogenous PPV 6.40 × 10^3, 0.04% (v/v) BPL): 4.00 × 10^2 FFID50/g
PPV Titer reduction [6]: 10^3 FFID50/g
Detected PPV Titer [6]: 0.07 × 10^2 FFID50/g
PPV Titer reduction [7]: 10^3 FFID50/g
Detected PPV Titer [7]: < 0* FFID50/g
PPV Titer reduction [8]: 10^3 FFID50/g
Detected PPV Titer [8]: < 0* FFID50/g
PPV Titer reduction [9]: 10^3 FFID50/g
Detected PPV Titer [9]: < 0* FFID50/g
PPV Titer reduction [10]: 10^3 FFID50/g
Detected PPV Titer [10]: < 0* FFID50/g
